≈ marks a conversion by molar mass, not a printed value. Blank lines part the entries; values can stand above or below the compound they belong to.
Assays:
[1] = biological target: T1, Plasma kallikrein (Homo sapiens, UniProt P03952); assay: Inhibition of purified human plasma kallikrein using H-D-Pro-Phe-Arg-pNA.2HCl as substrate measured after 3 mins by microplate reader analysis
[2] = biological target: T1, Plasma kallikrein; assay: Inhibition of purified human plasma kallikrein using H-D-Pro-Phe-Arg-pNA.2HCl as substrate at 5 uM measured after 3 mins by microplate reader analysis relative to control
[3] = Cmax in rat at 10 mg/kg, po; format: ADME, organism-based; parameters: route oral, dose 10 mg/kg; conditions: in vivo
[4] = Plasma concentration in rat at 10 mg/kg, po after 24 hrs; format: ADME, organism-based
[5] = AUC in rat at 10 mg/kg, po after 24 hrs; format: ADME, organism-based; parameters: route oral, time 24 hrs, dose 10 mg/kg; conditions: in vivo
[6] = organism: Homo sapiens; assay: Selectivity index, ratio of IC50 for human trypsin to IC50 for human plasma kallikrein
[7] = organism: Homo sapiens; assay: Selectivity index, ratio of IC50 for human thrombin to IC50 for human plasma kallikrein
[8] = organism: Homo sapiens; assay: Selectivity index, ratio of IC50 for human plasmin to IC50 for human plasma kallikrein
[9] = organism: Homo sapiens; assay: Selectivity index, ratio of IC50 for human tPA to IC50 for human plasma kallikrein
[10] = organism: Homo sapiens; assay: Selectivity index, ratio of IC50 for human APC to IC50 for human plasma kallikrein
[11] = organism: Homo sapiens; assay: Selectivity index, ratio of IC50 for human Cls to IC50 for human plasma kallikrein
[12] = organism: Homo sapiens; assay: Selectivity index, ratio of IC50 for human FXa to IC50 for human plasma kallikrein
[13] = organism: Homo sapiens; assay: Selectivity index, ratio of IC50 for human FX2a to IC50 for human plasma kallikrein
[14] = organism: Homo sapiens; assay: Selectivity index, ratio of IC50 for human tissue kallikrein to IC50 for human plasma kallikrein
[15] = biological target: Trypsin (Homo sapiens, UniProt P07477+P07478+P35030); assay: Inhibition of human trypsin using Nalpha-Benzoyl-L-Arginine p-nitroaniline as substrate measured after 5 mins by plate reader analysis; format: protein assay
[16] = biological target: Prothrombin (Homo sapiens, UniProt P00734); assay: Inhibition of human thrombin using Nalpha-Benzoyl-Phe-Val-Arg p-nitroaniline as substrate measured after 5 mins by plate reader analysis
[17] = biological target: Plasminogen (Homo sapiens, UniProt P00747); assay: Inhibition of human plasmin using Z-Lys-SBzl as substrate measured immediately by plate reader analysis
Plasminogen, sequence (P00747 97-580 limits assumed): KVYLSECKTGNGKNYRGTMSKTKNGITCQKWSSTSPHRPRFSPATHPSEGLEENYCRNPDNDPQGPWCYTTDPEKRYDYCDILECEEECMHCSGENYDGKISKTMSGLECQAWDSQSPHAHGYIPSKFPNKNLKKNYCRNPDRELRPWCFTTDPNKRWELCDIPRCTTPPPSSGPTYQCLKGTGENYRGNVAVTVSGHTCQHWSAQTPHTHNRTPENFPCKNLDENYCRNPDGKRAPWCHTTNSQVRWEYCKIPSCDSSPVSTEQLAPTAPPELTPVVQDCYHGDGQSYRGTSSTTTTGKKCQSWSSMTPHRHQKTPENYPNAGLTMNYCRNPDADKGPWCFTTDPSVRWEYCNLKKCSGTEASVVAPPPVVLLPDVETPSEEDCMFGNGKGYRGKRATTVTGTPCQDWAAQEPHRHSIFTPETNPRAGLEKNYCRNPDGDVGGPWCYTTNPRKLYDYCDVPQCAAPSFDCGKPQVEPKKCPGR
Plasminogen, sequence (P00747 581-810 limits assumed): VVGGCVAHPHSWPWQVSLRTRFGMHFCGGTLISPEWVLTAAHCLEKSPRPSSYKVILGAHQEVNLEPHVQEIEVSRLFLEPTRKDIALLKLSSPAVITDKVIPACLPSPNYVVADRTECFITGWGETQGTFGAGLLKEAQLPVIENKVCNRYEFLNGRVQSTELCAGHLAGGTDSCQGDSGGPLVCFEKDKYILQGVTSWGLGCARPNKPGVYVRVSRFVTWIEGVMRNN

[18] = biological target: Tissue-type plasminogen activator (Homo sapiens, UniProt P00750); assay: Inhibition of recombinant human tPA using H-D-Isoleucyl-L-prolyl-L-arginine p-nitroaniline dihydrochloride as substrate measured after 5 mins by plate reader analysis
Tissue-type plasminogen activator, sequence (P00750 whole entry): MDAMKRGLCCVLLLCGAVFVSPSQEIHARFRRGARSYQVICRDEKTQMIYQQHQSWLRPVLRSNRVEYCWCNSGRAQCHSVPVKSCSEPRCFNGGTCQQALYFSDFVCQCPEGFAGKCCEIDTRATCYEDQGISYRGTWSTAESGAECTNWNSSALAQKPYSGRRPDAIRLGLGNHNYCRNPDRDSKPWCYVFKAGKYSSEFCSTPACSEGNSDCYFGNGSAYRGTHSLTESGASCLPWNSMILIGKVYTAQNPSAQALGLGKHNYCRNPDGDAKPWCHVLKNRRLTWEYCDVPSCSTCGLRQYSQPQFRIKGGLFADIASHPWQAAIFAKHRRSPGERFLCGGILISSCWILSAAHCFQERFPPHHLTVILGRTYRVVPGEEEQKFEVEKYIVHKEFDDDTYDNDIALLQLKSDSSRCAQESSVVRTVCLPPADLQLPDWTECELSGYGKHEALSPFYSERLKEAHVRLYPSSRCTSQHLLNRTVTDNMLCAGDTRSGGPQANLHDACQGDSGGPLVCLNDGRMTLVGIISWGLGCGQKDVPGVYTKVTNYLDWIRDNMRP

[19] = biological target: T2, Complement C1s subcomponent (Homo sapiens, UniProt P09871); assay: Inhibition of human C1s using […] as substrate measured immediately by plate reader analysis
T2 sequence (P09871 whole entry): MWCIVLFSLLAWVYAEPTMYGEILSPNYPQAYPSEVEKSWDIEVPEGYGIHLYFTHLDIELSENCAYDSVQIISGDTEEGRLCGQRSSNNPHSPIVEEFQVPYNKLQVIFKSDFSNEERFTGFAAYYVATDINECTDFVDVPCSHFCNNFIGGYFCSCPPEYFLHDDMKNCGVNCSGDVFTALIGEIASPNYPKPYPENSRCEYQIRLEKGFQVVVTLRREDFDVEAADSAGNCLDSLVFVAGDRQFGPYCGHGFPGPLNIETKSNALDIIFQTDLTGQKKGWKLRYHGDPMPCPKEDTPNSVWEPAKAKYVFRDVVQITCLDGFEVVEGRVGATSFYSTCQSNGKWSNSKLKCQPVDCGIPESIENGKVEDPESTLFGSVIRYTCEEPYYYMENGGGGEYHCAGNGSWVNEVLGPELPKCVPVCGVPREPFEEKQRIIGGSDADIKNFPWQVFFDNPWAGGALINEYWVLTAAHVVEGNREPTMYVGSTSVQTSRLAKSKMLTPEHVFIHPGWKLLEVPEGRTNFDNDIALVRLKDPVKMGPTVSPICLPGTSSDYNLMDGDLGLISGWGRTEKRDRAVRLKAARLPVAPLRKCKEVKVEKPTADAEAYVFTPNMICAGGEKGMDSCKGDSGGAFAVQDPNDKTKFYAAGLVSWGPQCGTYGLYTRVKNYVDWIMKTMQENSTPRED

[20] = biological target: Coagulation factor X (Homo sapiens, UniProt P00742); assay: Inhibition of human factor 10a using N-a-Benzyloxycarbonyl-D-arginyl-L-glycyl-L-arginine-pnitroaniline-dihydrochloride as substrate measured after 5 mins by plate reader analysis
Coagulation factor X, sequence (P00742 41-179 limits assumed): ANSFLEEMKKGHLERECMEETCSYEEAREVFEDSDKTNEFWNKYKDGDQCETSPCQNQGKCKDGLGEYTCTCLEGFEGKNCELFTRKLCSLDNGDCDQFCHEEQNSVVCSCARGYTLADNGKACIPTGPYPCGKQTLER
Coagulation factor X, sequence (P00742 235-488 limits assumed): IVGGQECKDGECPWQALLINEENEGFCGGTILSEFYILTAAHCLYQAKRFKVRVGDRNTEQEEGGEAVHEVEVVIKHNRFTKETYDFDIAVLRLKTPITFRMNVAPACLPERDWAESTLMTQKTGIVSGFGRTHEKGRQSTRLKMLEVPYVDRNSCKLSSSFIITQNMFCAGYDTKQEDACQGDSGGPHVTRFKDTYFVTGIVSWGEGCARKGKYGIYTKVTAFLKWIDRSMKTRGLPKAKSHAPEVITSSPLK

[21] = biological target: T3, Coagulation factor XII (Homo sapiens, UniProt P00748); assay: Inhibition of human factor 12a using D-prolyl-L-phenylalanyl-L-arginine-p-nitroaniline as substrate measured after 5 mins by plate reader analysis
T3 sequence (P00748 whole entry): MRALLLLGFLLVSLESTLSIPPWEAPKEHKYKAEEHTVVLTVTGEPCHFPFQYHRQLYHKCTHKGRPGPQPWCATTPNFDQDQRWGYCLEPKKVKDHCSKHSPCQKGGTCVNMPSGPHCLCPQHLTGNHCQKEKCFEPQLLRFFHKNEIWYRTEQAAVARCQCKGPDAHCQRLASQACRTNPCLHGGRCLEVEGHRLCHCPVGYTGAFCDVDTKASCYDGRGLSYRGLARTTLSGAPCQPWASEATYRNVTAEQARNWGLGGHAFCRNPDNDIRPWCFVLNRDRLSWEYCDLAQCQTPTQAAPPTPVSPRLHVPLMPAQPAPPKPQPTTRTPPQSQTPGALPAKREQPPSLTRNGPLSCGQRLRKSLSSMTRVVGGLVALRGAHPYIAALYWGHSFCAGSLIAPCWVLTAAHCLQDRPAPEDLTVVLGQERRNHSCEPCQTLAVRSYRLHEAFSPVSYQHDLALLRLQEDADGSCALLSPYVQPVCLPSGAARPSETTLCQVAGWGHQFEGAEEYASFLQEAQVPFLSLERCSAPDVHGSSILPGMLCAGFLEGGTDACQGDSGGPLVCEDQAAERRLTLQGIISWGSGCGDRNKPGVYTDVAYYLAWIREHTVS

[22] = Half life in rat at 3 mg/kg, iv; format: ADME, organism-based; conditions: in vivo
[23] = Half life in rat at 30 mg/kg, po; format: ADME, organism-based; conditions: in vivo
[24] = Cmax in rat at 3 mg/kg, iv; format: ADME, organism-based; parameters: route intravenous, dose 3 mg/kg; conditions: in vivo
[25] = Cmax in rat at 30 mg/kg, po; format: ADME, organism-based; parameters: route oral, dose 30 mg/kg; conditions: in vivo
[26] = Tmax in rat at 30 mg/kg, po; format: ADME, organism-based; conditions: in vivo
[27] = Clearance in rat at 3 mg/kg, iv; format: ADME, organism-based; conditions: in vivo
[28] = Clearance in rat at 30 mg/kg, po; format: ADME, organism-based; conditions: in vivo
[29] = AUC(0 to 24 hrs) in rat at 3 mg/kg, iv; format: ADME, organism-based; parameters: time < 24 hr, route intravenous, dose 3 mg/kg; conditions: in vivo
[30] = AUC(0 to 24 hrs) in rat at 30 mg/kg, po; format: ADME, organism-based; parameters: time < 24 hr, route oral, dose 30 mg/kg; conditions: in vivo
[31] = AUC(0 to 96 hrs) in rat at 3 mg/kg, iv; format: ADME, organism-based; parameters: time < 96 hr, route intravenous, dose 3 mg/kg; conditions: in vivo
[32] = AUC(0 to 96 hrs) in rat at 30 mg/kg, po; format: ADME, organism-based; parameters: time < 96 hr, route oral, dose 30 mg/kg; conditions: in vivo
[33] = Oral bioavailability in rat at 30 mg/kg; format: ADME, organism-based; conditions: in vivo
[34] = Half life in monkey at 2.5 mg/kg, iv; format: ADME, organism-based, Macaca mulatta; conditions: rhesus monkey, in vivo
[35] = Half life in monkey at 25 mg/kg, po; format: ADME, organism-based, Macaca mulatta; conditions: rhesus monkey, in vivo
[36] = Cmax in monkey at 2.5 mg/kg, iv; format: ADME, organism-based, Macaca mulatta; parameters: route intravenous, dose 2.5 mg/kg; conditions: rhesus monkey, in vivo
[37] = Cmax in monkey at 25 mg/kg, po; format: ADME, organism-based, Macaca mulatta; parameters: route oral, dose 25 mg/kg; conditions: rhesus monkey, in vivo
[38] = Tmax in monkey at 25 mg/kg, po; format: ADME, organism-based, Macaca mulatta; conditions: rhesus monkey, in vivo
[39] = Clearance in monkey at 2.5 mg/kg, iv; format: ADME, organism-based, Macaca mulatta; conditions: rhesus monkey, in vivo
[40] = Clearance in monkey at 25 mg/kg, po; format: ADME, organism-based, Macaca mulatta; conditions: rhesus monkey, in vivo
[41] = AUC(0 to 24 hrs) in monkey at 2.5 mg/kg, iv; format: ADME, organism-based, Macaca mulatta; parameters: time < 24 hr, route intravenous, dose 2.5 mg/kg; conditions: rhesus monkey, in vivo
[42] = AUC(0 to 24 hrs) in monkey at 25 mg/kg, po; format: ADME, organism-based, Macaca mulatta; parameters: time < 24 hr, route oral, dose 25 mg/kg; conditions: rhesus monkey, in vivo
[43] = Oral bioavailability in monkey at 25 mg/kg; format: ADME, organism-based, Macaca mulatta; conditions: rhesus monkey, in vivo
[44] = Solubility of compound at pH 4; format: physicochemical; conditions: buffer
[45] = Solubility of compound at pH 7; format: physicochemical; conditions: buffer
[46] = Cmax in rat at 5 mg/kg, po; format: ADME, organism-based; parameters: route oral, dose 5 mg/kg; conditions: in vivo
[47] = Plasma concentration in rat at 5 mg/kg, po after 12 hrs; format: ADME, organism-based
[48] = Plasma concentration in rat at 5 mg/kg, po after 24 hrs; format: ADME, organism-based
[49] = AUC in rat at 5 mg/kg, po after 12 hrs; format: ADME, organism-based; parameters: route oral, time 12 hrs, dose 5 mg/kg; conditions: in vivo
[50] = AUC in rat at 5 mg/kg, po after 24 hrs; format: ADME, organism-based; parameters: route oral, dose 5 mg/kg, time 24 hrs; conditions: in vivo
[51] = biological target: T1, Plasma kallikrein; assay: Inhibition of purified human plasma kallikrein assessed as inhibition constant using H-D-Pro-Phe-Arg-pNA.2HCl as substrate measured after 3 mins by microplate reader analysis

T1 sequence (P03952 20-390 limits assumed): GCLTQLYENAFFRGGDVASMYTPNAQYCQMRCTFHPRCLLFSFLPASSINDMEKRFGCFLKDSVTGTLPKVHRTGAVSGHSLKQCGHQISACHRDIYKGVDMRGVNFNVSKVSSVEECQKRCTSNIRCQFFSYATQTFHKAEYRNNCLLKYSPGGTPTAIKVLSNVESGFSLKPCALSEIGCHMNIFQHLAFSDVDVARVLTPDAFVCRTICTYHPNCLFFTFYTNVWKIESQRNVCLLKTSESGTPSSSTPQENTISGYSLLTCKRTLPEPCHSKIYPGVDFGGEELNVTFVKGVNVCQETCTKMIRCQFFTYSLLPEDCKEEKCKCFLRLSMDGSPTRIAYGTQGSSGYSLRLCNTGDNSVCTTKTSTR
T1 sequence (P03952 391-638 limits assumed): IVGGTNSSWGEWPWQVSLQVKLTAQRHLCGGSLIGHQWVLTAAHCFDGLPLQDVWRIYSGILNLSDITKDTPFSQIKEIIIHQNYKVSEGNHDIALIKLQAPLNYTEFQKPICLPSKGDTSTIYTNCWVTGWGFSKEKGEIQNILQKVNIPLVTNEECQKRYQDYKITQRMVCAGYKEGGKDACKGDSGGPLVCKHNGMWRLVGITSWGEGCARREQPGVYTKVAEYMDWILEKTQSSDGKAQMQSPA

Compound: NCc1cccc(-n2nc(C(F)(F)F)cc2C(=O)Nc2ccc(C3CC3)cc2F)c1
IC50 [1]: 0.577 µM

Compound: NCc1cccc(-n2nc(C(F)(F)F)cc2C(=O)O)c1
IC50 [1]: 15.4 µM

Compound: NCc1cccc(-n2nc(C(F)(F)F)cc2C(=O)Nc2ccc(N3CCCCC3)cc2F)c1
inhibition [2]: 7.5%

Compound: NCc1cccc(-n2nc(C(F)(F)F)cc2C(=O)Nc2cc(C(NCC3CC3)c3ccccc3)ccc2F)c1 (single isomer, unassigned; (-))
Cmax [3]: 133 ng/mL
concentration at 24 h [4]: 30 ng/mL
AUC at 24 h [5]: 1490 ng·h/mL

Compound: C=Cc1cc(C(=O)Nc2ccc(C(=N)N)cc2)c(-c2ccc(C(=O)NCC3CC3)nc2C(=O)O)cc1OC [AVORALSTAT]
Ratio IC50 [6]: 8192
Ki [51]: 0.00026 µM
solubility [44]: 47000 µg/mL (≈ 91500 µM)
solubility [45]: 1090 µg/mL (≈ 2120 µM)

Second part, the compound after the results:

Ratio IC50 [6]: 12500
Ratio IC50 [7]: > 56800
Ratio IC50 [8]: 4510
Ratio IC50 [9]: > 56800
Ratio IC50 [10]: > 34100
Ratio IC50 [11]: > 56800
Ratio IC50 [12]: > 56800
Ratio IC50 [13]: > 56800
Ratio IC50 [14]: > 34100
Compound: N#Cc1cccc([C@@H](NCC2CC2)c2ccc(F)c(NC(=O)c3cc(C(F)(F)F)nn3-c3cccc(CN)c3)c2)c1 (stereo in doubt)

Cmax [3]: 242 ng/mL
AUC at 24 h [5]: 2210 ng·h/mL
IC50 [15]: 11 µM
IC50 [16]: > 50 µM
IC50 [17]: 3.97 µM
IC50 [18]: > 50 µM
IC50 [19]: > 50 µM
IC50 [20]: > 50 µM
IC50 [21]: > 50 µM
half-life [22]: 10.1 h
half-life [23]: 18.5 h
Cmax [24]: 773 ng/mL
Cmax [25]: 475 ng/mL
Tmax [26]: 2 h
clearance [27]: 27 mL/min/kg
CL/F [28]: 81 mL/min/kg
AUC(0-t) at 24 h [29]: 1620 ng·h/mL
AUC(0-t) at 24 h [30]: 4780 ng·h/mL
AUC(0-t) at 96 h [31]: 1860 ng·h/mL
AUC(0-t) at 96 h [32]: 6180 ng·h/mL
bioavailability [33]: 33%
half-life [34]: 18.3 h
half-life [35]: 22.7 h
Cmax [36]: 673 ng/mL
Cmax [37]: 342 ng/mL
Tmax [38]: 4.7 h
clearance [39]: 30 mL/min/kg
CL/F [40]: 73 mL/min/kg
AUC(0-t) at 24 h [41]: 974 ng·h/mL
AUC(0-t) at 24 h [42]: 4150 ng·h/mL
bioavailability [43]: 45%
solubility [44]: 120 µg/mL (≈ 213 µM)
solubility [45]: 160 µg/mL (≈ 284 µM)
Compound: N#Cc1cccc([C@@H](NCC2CC2)c2ccc(F)c(NC(=O)c3cc(C(F)(F)F)nn3-c3cccc(CN)c3)c2)c1 (stereo in doubt) [BEROTRALSTAT]

Cmax [46]: 51 ng/mL
concentration at 12 h [47]: 31 ng/mL
concentration at 24 h [48]: 29 ng/mL
AUC at 12 h [49]: 493 ng·h/mL
AUC at 24 h [50]: 852 ng·h/mL
Compound: NCc1cccc(-n2nc(C(F)(F)F)cc2C(=O)Nc2cc(C(NCC3CC3)c3ccccc3)ccc2F)c1 (stereo in doubt; 25)

From ChEMBL document CHEMBL4842368, “Berotralstat (BCX7353): Structure-Guided Design of a Potent, Selective, and Oral Plasma Kallikrein Inhibitor to Prevent Attacks of Hereditary Angioedema (HAE)” (J Med Chem, 2021)
